Values of other authors, collected in patent US20250009647A1, “PHARMACEUTICAL COMPOSITION” (priority 2021, published 2025).

Experiments:
[1] = in water
[2] = in DMSO

SMILES | pKa(H2O) [1] | pKa(DMSO) [2]
O=C(O)C(=O)O [Oxalic acid] | 1.46 | 6.2
NS(=O)(=O)O [Sulfamic acid] | 0.99 | 6.5
O=C(O)c1cc2ccccc2c(Cc2c(O)c(C(=O)O)cc3ccccc23)c1O [Pamoic acid] | 2.67 | –
